According to patent publication US20250346585A1 (Alexion Pharmaceuticals, Inc., priority 2022, published 2025):

What follows are compounds tested against Human complement C1s enzyme (Homo sapiens (Human), UniProt P09871) (assay: Human C1s enzyme assay). Details: Human C1s enzyme assay of Example 3; read-out: IC50 (Stars).
Format: biochemical
Method in brief: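 IC50 derived by nonlinear regression of rate versus concentration, with rate taken from A405 kinetics (30 s intervals, 30 min) after adding 100 μM each Z-L-Lys-SBzl and DTNB. C1s from human serum, 1.16 nM, exposed to compound for 5 min at RT beforehand; buffer 50 mM Tris, 1 M NaCl, pH 7.5.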

Chain of Human complement C1s enzyme (P09871 438-688 limits assumed): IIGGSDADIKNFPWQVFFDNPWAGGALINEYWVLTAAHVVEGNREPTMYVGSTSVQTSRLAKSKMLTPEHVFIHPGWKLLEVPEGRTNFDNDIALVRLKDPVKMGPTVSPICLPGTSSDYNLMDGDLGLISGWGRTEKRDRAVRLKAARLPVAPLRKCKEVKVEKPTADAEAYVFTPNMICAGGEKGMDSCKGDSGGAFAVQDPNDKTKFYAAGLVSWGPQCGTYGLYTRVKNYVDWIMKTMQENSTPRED
Chain of Human complement C1s enzyme (P09871 16-437 partner limits assumed): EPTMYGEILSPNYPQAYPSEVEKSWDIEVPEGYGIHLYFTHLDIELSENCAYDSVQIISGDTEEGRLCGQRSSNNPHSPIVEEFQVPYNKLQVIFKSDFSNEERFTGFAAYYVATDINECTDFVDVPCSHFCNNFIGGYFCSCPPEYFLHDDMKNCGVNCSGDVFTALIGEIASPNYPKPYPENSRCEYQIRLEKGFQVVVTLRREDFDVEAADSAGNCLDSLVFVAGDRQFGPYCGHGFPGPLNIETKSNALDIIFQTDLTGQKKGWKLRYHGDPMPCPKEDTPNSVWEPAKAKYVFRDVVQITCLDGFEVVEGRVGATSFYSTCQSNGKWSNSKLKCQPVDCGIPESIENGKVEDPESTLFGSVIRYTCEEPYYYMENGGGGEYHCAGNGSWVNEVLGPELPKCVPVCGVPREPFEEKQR

Compound | IC50
C[C@@H](NC(=O)[C@@H]1CC2(CN1C(=O)CNC(=O)c1ccc3c(c1)-c1ccccc1C3(F)F)OCCO2)c1cc(-c2ncco2)cs1 [Compound 113, (S)-7-((9,9-difluoro-9H-fluorene-3-carbonyl)glycyl)-N—((R)-1-(4-(oxazol-2-yl)thiophen-2-yl)ethyl)-1,4-dioxa-7-azaspiro[4.4]nonane-8-carboxamide] | > 1000 nM
Nc1ncccc1-c1csc(CNC(=O)[C@@H]2CC3(CN2C(=O)CNC(=O)c2ccc(Oc4ccc(F)cc4)cc2)OCCO3)c1 [Compound 122, (S)—N-((4-(2-aminopyridin-3-yl)thiophen-2-yl)methyl)-7-((4-(4-fluorophenoxy)benzoyl)glycyl)-1,4-dioxa-7-azaspiro[4.4]nonane-8-carboxamide] | > 1000 nM
COC[C@@H]1C[C@@H](C(=O)N[C@H](C)c2cc(C(=N)N)cs2)N(C(=O)CNC(=O)c2ccc3c(c2)-c2ccccc2C3(F)F)C1 (relative stereo) [Compound 118, (2S,4R*)—N—((R)-1-(4-carbamimidoylthiophen-2-yl)ethyl)-1-((9,9-difluoro-9H-fluorene-3-carbonyl)glycyl)-4-(methoxymethyl)pyrrolidine-2-carboxamide] | < 100 nM
C[C@@H](NC(=O)[C@@H]1C[C@@H](OC(F)F)CN1C(=O)CNC(=O)c1ccc(Oc2ccc(F)cc2)cc1)c1cc(C(=N)N)cs1 [Compound 8, (2S,4R)—N—((R)-1-(4-carbamimidoylthiophen-2-yl)ethyl)-4-(difluoromethoxy)-1-((4-(4-fluorophenoxy)benzoyl)glycyl)pyrrolidine-2-carboxamide] | < 100 nM
C[C@@H](NC(=O)[C@@H]1CC2(CN1C(=O)CNC(=O)c1ccc3c(c1)-c1ccccc1C3(F)F)OCCO2)c1cc(C(=N)NO)cs1 [Compound 128, (S)-7-((9,9-difluoro-9H-fluorene-3-carbonyl)glycyl)-N—((R)-1-(4-(N-hydroxycarbamimidoyl)thiophen-2-yl)ethyl)-1,4-dioxa-7-azaspiro[4.4]nonane-8-carboxamide] | < 100 nM
C[C@@H](NC(=O)[C@@H]1CC2(CN1C(=O)CNC(=O)c1ccc3c(c1)-c1ccccc1C3(F)F)OCCO2)c1cc(-c2nn[nH]n2)cs1 [Compound 92, (S)—N—((R)-1-(4-(2H-tetrazol-5-yl)thiophen-2-yl)ethyl)-7-((9,9-difluoro-9H-fluorene-3-carbonyl)glycyl)-1,4-dioxa-7-azaspiro[4.4]nonane-8-carboxamide] | > 1000 nM
Cc1ccc(-c2cnc(C(=O)NCC(=O)N3CC4(C[C@H]3C(=O)NCc3cc(C(=N)N)cs3)OCCO4)c(F)c2)cc1 [Compound 102, (S)—N-((4-carbamimidoylthiophen-2-yl)methyl)-7-((3-fluoro-5-(p-tolyl)picolinoyl)glycyl)-1,4-dioxa-7-azaspiro[4.4]nonane-8-carboxamide] | < 100 nM
C[C@@H](NC(=O)[C@@H]1CC2(CN1C(=O)CNC(=O)c1ccc3c(c1)-c1ccccc1-3)OCCO2)c1cc(C(=N)N)cs1 [Compound 95, (S)-7-((biphenylene-2-carbonyl)glycyl)-N—((R)-1-(4-carbamimidoylthiophen-2-yl)ethyl)-1,4-dioxa-7-azaspiro[4.4]nonane-8-carboxamide] | < 100 nM
C[C@@H](NC(=O)[C@@H]1CC2(CN1C(=O)CNC(=O)c1ccc3c(c1)-c1ccccc1C3(F)F)OCCO2)c1cc(-c2cc[nH]n2)cs1 [Compound 97, (S)—N—((R)-1-(4-(1H-pyrazol-3-yl)thiophen-2-yl)ethyl)-7-((9,9-difluoro-9H-fluorene-3-carbonyl)glycyl)-1,4-dioxa-7-azaspiro[4.4]nonane-8-carboxamide] | > 1000 nM
Cc1cc(C(=O)NCC(=O)N2[C@H]3C[C@@]3(C)C[C@H]2C(=O)N[C@H](C)c2ccc(C(=N)N)s2)ccc1Oc1ccccc1 [Compound 31, (1S,3S,5S)—N—((R)-1-(5-carbamimidoylthiophen-2-yl)ethyl)-5-methyl-2-((3-methyl-4-phenoxybenzoyl)glycyl)-2-azabicyclo[3.1.0]hexane-3-carboxamide] | < 100 nM
N=C(N)c1csc(CNC(=O)[C@@H]2CC3(CN2C(=O)CNC(=O)c2ccc(-c4ccccc4)cn2)OCCO3)c1 [Compound 48, (S)—N-((4-carbamimidoylthiophen-2-yl)methyl)-7-((5-phenylpicolinoyl)glycyl)-1,4-dioxa-7-azaspiro[4.4]nonane-8-carboxamide] | < 100 nM
Cc1cc(C(=O)NCC(=O)N2C[C@H](OC(F)F)C[C@H]2C(=O)N[C@H](C)c2cc(C(=N)N)cs2)ccc1Oc1ccccc1 [Compound 24, (2S,4R)—N—((R)-1-(4-carbamimidoylthiophen-2-yl)ethyl)-4-(difluoromethoxy)-1-((3-methyl-4-phenoxybenzoyl)glycyl)pyrrolidine-2-carboxamide] | < 100 nM
Cc1cccc2c1C(F)(F)c1ccc(C(=O)NCC(=O)N3CC4(C[C@H]3C(=O)N[C@H](C)c3cc(C(=N)N)cs3)OCCO4)cc1-2 [Compound 182, (S)—N—((R)-1-(4-carbamimidoylthiophen-2-yl)ethyl)-7-((9,9-difluoro-8-methyl-9H-fluorene-3-carbonyl)glycyl)-1,4-dioxa-7-azaspiro[4.4]nonane-8-carboxamide] | < 100 nM
CC1c2ccccc2-c2cc(C(=O)NCC(=O)N3CC4(C[C@H]3C(=O)N[C@H](C)c3cc(C(=N)N)cs3)OCCO4)ccc21 (stereo partly drawn) [Compound 99, (8S)—N-[(1R)-1-(4-carbamimidoylthiophen-2-yl)ethyl]-7-{2-[(9-methyl-9H-fluoren-3-yl)formamido]acetyl}-1,4-dioxa-7-azaspiro[4.4]nonane-8-carboxamide] | < 100 nM
C[C@@H](NC(=O)[C@@H]1C[C@](F)(CF)CN1C(=O)CNC(=O)c1ccc(C(F)(F)c2ccccc2)cc1)c1cc(C(=N)N)cs1 [Compound 154, (2S,4R)—N—((R)-1-(4-carbamimidoylthiophen-2-yl)ethyl)-1-((4-(difluoro(phenyl)methyl)benzoyl)glycyl)-4-fluoro-4-(fluoromethyl)pyrrolidine-2-carboxamide] | < 100 nM

Same assay, conditions: Human complement C1s enzyme 1.16 nM, substrate Z-L-Lys-SBzl 100 μM, assay of Example 3; read-out: IC50 (Stars)

Compound | IC50
CC1c2ccccc2-c2ccc(C(=O)NCC(=O)N3C[C@@](F)(CF)C[C@H]3C(=O)N[C@H](C)c3cc(C(=N)N)cs3)cc21 (stereo partly drawn) [Compound 371, (2S,4R)—N—((R)-1-(4-carbamimidoylthiophen-2-yl)ethyl)-4-fluoro-4-(fluoromethyl)-1-((9-methyl-9H-fluorene-2-carbonyl)glycyl)pyrrolidine-2-carboxamide] | < 100 nM
C[C@@H](NC(=O)[C@@H]1CC2(CN1C(=O)CNC(=O)c1ncc(-c3ccc(F)cc3F)cc1F)OCCO2)c1cc(C(=N)N)cs1 [Compound 356, (S)—N—((R)-1-(4-carbamimidoylthiophen-2-yl)ethyl)-7-((5-(2,4-difluorophenyl)-3-fluoropicolinoyl)glycyl)-1,4-dioxa-7-azaspiro[4.4]nonane-8-carboxamide] | < 100 nM
CO[C@@H]1C[C@@H](C(=O)NCc2cc(NC(=O)CNC(=O)c3ccc(Oc4ccc(F)cc4)cc3)cs2)N(C(=O)CNC(=O)c2ccc(Oc3ccc(F)cc3)cc2)C1 [Compound 243, (2S,4R)-N-((4-(2-(4-(4-fluorophenoxy)benzamido)acetamido)thiophen-2-yl)methyl)-1-((4-(4-fluorophenoxy)benzoyl)glycyl)-4-methoxypyrrolidine-2-carboxamide] | > 1000 nM
CO[C@@H]1C[C@@H](C(=O)N[C@H](C)c2cc(C(=N)N)cs2)N(C(=O)CNC(=O)c2ccc3cc4ccccc4cc3c2)C1 [Compound 278, (2S,4R)-1-((anthracene-2-carbonyl)glycyl)-N—((R)-1-(4-carbamimidoylthiophen-2-yl)ethyl)-4-methoxypyrrolidine-2-carboxamide] | < 100 nM
COC[C@@]1(F)C[C@@H](C(=O)N[C@H](C)c2cc(C(=N)N)cs2)N(C(=O)CNC(=O)c2ccc3c(c2)oc2ccccc23)C1 [Compound 360, (2S,4R)—N—((R)-1-(4-carbamimidoylthiophen-2-yl)ethyl)-1-((dibenzo[b,d]furan-3-carbonyl)glycyl)-4-fluoro-4-(methoxymethyl)pyrrolidine-2-carboxamide] | < 100 nM
Cc1ccc(-c2ccc3c(c2)CN(CC(=O)N2CC4(C[C@H]2C(=O)NCc2cc(C(=N)N)cs2)OCCO4)C3=O)c(C)c1 [Compound 240, (S)—N-((4-carbamimidoylthiophen-2-yl)methyl)-7-(2-(5-(2,4-dimethylphenyl)-1-oxoisoindolin-2-yl)acetyl)-1,4-dioxa-7-azaspiro[4.4]nonane-8-carboxamide] | < 100 nM
COC[C@@]1(F)C[C@@H](C(=O)N[C@H](C)c2cc(C(=N)N)cs2)N(C(=O)CNC(=O)c2ccc3[nH]c4ccccc4c3c2)C1 [Compound 389, N-(2-((2S,4R)-2-(((R)-1-(4-carbamimidoylthiophen-2-yl)ethyl)carbamoyl)-4-fluoro-4-(methoxymethyl)pyrrolidin-1-yl)-2-oxoethyl)-9H-carbazole-3-carboxamide] | < 100 nM
C[C@@H](NC(=O)[C@@H]1C[C@@H](S(C)(=O)=O)CN1C(=O)CNC(=O)c1ccc2cc3ccccc3cc2c1)c1cc(C(=N)N)cs1 [Compound 239, (2S,4R)-1-((anthracene-2-carbonyl)glycyl)-N—((R)-1-(4-carbamimidoylthiophen-2-yl)ethyl)-4-(methylsulfonyl)pyrrolidine-2-carboxamide] | < 100 nM
C[C@@H](NC(=O)[C@@H]1C[C@@H](OC(F)F)CN1C(=O)CNC(=O)c1ccc2c(c1)sc1ccccc12)c1cc(C(=N)N)cs1 [Compound 352, (2S,4R)—N—((R)-1-(4-carbamimidoylthiophen-2-yl)ethyl)-1-((dibenzo[b,d]thiophene-3-carbonyl)glycyl)-4-(difluoromethoxy)pyrrolidine-2-carboxamide] | < 100 nM
